This is an account of results in patent US20010047017A1, “Azole derivatives” (priority 2000, published 2001).

Common to all, as to experiment: In vitro antifungal activity (IC80), broth micro-dilution
Common to all, as to type: cell-based

Test [1] deals with Aspergillus fumigatus (437). Particulars: 80% inhibitory concentration, YNB medium solidified with 0.2% low melting point agarose, 1-2 days at 35° C. As to the method: (§1) In vitro antifungal activities of 1-(1H-1,2,4-triazol-1-yl)butan-2-ol derivatives of the formula (I) of the present invention were evaluated by determining the 80% inhibitory concentration (IC80), which was calculated as the lowest concentration of an antifungal to inhibit the growth of fungus to 20% turbidity compared with the drug-free control growth spectrophotometrically. The IC80 values were determined by the broth micro-dilution procedure based on NCCLS Approved Standard with the following minor modifications:
(§2) National Committee for Clinical Laboratory Standards. (1997) Reference method for broth dilution antifungal susceptibility testing for yeasts. Approved standard.
(§3) Yeast Nitrogen Base (YNB; Difco Lab.) supplemented with 1% glucose and 0.25% K2HPO4 was used as testing medium for yeast, the same medium solidified with 0.2% low melting point agarose (BRL) was used for filamentous fungi. Inoculum size was 1-3×10^4 cells/ml, and incubation was performed for 1-2 days at 35° C.
(§4) The inhibitory activity of 1-(1H-1,2,4-triazol-1-yl)butan-2-ol derivatives of the formula (I) against in vitro growth of Candida albicans, Aspergillus fumigatus, Rhizopus oryzea, and Absidia corymbifera is summarized in Table 1 comparing with 2-(2,4-difluorophenyl)-1,3-bis(1H-1,2,4-triazol-1-ylmethyl)propan-2-ol (Fluconazole; Pfizer).

For test [2], the system named is Candida albicans (CY1002). Particulars: 80% inhibitory concentration, YNB medium with 1% glucose and 0.25% K2HPO4, 1-2 days at 35° C. As to the method: as §1, §2, §3, §4
The subject of test [3] is Rhizopus oryzea (CFF1118). Particulars: 80% inhibitory concentration, YNB medium solidified with 0.2% low melting point agarose, 1-2 days at 35° C., read-out: In vitro antifungal activity (IC80) R. oryzea (CFF1118). As to the method:
as §1, §2, §3, §4

Test [4] deals with Absidia corymbifera (CF1001). As to conditions: Lichtheimia corymbifera; 80% inhibitory concentration; YNB medium solidified with 0.2% low melting point agarose; 1-2 days at 35° C.; read-out: In vitro antifungal activity (IC80) A. cormybifera (CF1001). As to the method:
as §1, §2, §3, §4

Each structure is given as a SMILES string. In brackets after ≈: the same amount, converted by molar mass.

The term IC80 denotes the concentration needed for an effect of 80%. For the molecule `C[C@@H](c1nc(-c2ccc(-c3csnn3)cc2)ns1)[C@](O)(Cn1cncn1)c1ccc(F)cc1F` [Example 1, (2R,3R)-2-(2,4-Difluorophenyl)-3-{3-[4-(1,2,3-thiadiazol-4-yl)phenyl]-1,2,4-thiadiazol-5-yl}-1-(1H-1,2,4-triazol-1-yl)butan-2-ol], the concentration for an effect of 80% (IC80) was 0.11 µg/mL (≈ 0.221 µM) in test [1], 0.00093 µg/mL (≈ 0.00187 µM) in test [2], 0.0023 µg/mL (≈ 0.00462 µM) in test [3] and 0.0057 µg/mL (≈ 0.0115 µM) in test [4].
For `C[C@@H](c1nc(-c2ccc(-c3csnn3)cc2)ns1)[C@](O)(Cn1cncn1)c1cc(F)ccc1F` [Example 2, (2R,3R)-2-(2,5-Difluorophenyl)-3-{3-[4-(1,2,3-thiadiazol-4-yl)phenyl]-1,2,4-thiadiazol-5-yl}-1-(1H-1,2,4-triazol-1-yl)butan-2-ol], the IC80 in test [1] was found to be 0.036 µg/mL (≈ 0.0724 µM); in test [2], 0.0014 µg/mL (≈ 0.00281 µM); in test [3] it was 0.011 µg/mL (≈ 0.0221 µM); in test [4], 0.047 µg/mL (≈ 0.0945 µM).
In the same order, the values of `C[C@@H](c1nc(-c2ccc(-c3csnn3)cc2)cs1)[C@](O)(Cn1cncn1)c1ccc(F)cc1F` [Example 3, (2R,3R)-2-(2,4-Difluorophenyl)-3-{4-[4-(1,2,3-thiadiazol-4-yl)phenyl]thiazol-2-yl}-1-(1H-1,2,4-triazol-1-yl)butan-2-ol] are 0.14 µg/mL (≈ 0.282 µM), 0.011 µg/mL (≈ 0.0222 µM), 0.0029 µg/mL (≈ 0.00584 µM) and 0.024 µg/mL (≈ 0.0483 µM).
As to `C[C@@H](c1nc(-c2ccc(-c3csnn3)cc2)cs1)[C@](O)(Cn1cncn1)c1cc(F)ccc1F` [Example 4, (2R,3R)-2-(2,5-Difluorophenyl)-3-{4-[4-(1,2,3-thiadiazol-4-yl)phenyl]thiazol-2-yl}-1-(1H-1,2,4-triazol-1-yl)butan-2-ol], the IC80 is 0.17 µg/mL (≈ 0.342 µM) in test [1], 0.011 µg/mL (≈ 0.0222 µM) in test [2], 0.0028 µg/mL (≈ 0.00564 µM) in test [3] and 0.017 µg/mL (≈ 0.0342 µM) in test [4].
As to `C[C@@H](c1nc(-c2ccc(-c3nccs3)cc2)cs1)[C@](O)(Cn1cncn1)c1ccc(F)cc1F` [Example 5, (2R,3R)-2-(2,4-Difluorophenyl)-3-{4-[4-(thiazol-2-yl)phenyl]thiazol-2-yl}-1-(1H-1,2,4-triazol-1-yl)butan-2-ol], the IC80 in test [1] came to 0.35 µg/mL (≈ 0.706 µM); in test [2] it was 0.0059 µg/mL (≈ 0.0119 µM); in test [3], 0.0047 µg/mL (≈ 0.00948 µM); in test [4], 0.3 µg/mL (≈ 0.605 µM).
Take `Cc1csc(-c2ccc(-c3csc([C@H](C)[C@](O)(Cn4cncn4)c4ccc(F)cc4F)n3)cc2)n1` [Example 6, (2R,3R)-2-(2,4-Difluorophenyl)-3-{4-[4-(4-methylthiazol-2-yl)phenyl]thiazol-2-yl}-1-(1H-1,2,4-triazol-1-yl)butan-2-ol]: the IC80 turned out to be 0.67 µg/mL (≈ 1.31 µM) in test [1], 0.021 µg/mL (≈ 0.0412 µM) in test [2], 0.095 µg/mL (≈ 0.186 µM) in test [3] and 0.33 µg/mL (≈ 0.648 µM) in test [4].
In the same order, the values of `CCc1csc(-c2ccc(-c3csc([C@H](C)[C@](O)(Cn4cncn4)c4ccc(F)cc4F)n3)cc2)n1` [Example 7, (2R,3R)-2-(2,4-Difluorophenyl)-3-{4-[4-(4-ethylthiazol-2-yl)phenyl]thiazol-2-yl}-1-(1H-1,2,4-triazol-1-yl)butan-2-ol] are 0.39 µg/mL (≈ 0.745 µM), 0.024 µg/mL (≈ 0.0458 µM), 0.069 µg/mL (≈ 0.132 µM) and 0.34 µg/mL (≈ 0.649 µM).
For `CCOC(=O)c1csc(-c2ccc(-c3csc([C@H](C)[C@](O)(Cn4cncn4)c4ccc(F)cc4F)n3)cc2)n1` [Example 9, 2-(4-{2-[(1R,2R)-2-(2,4-Difluorophenyl)-2-hydroxy-1-methyl-3-(1H-1,2,4-triazol-1-yl)propyl]thiazol-4-yl}phenyl)thiazole-4-carboxylic acid ethyl ester], the IC80 in test [1] came to 0.5 µg/mL (≈ 0.881 µM); in test [2], 0.022 µg/mL (≈ 0.0388 µM); in test [3] it was 0.036 µg/mL (≈ 0.0634 µM); in test [4], 0.17 µg/mL (≈ 0.299 µM).
The matching figures for `Cc1nc(-c2ccc(-c3csc([C@H](C)[C@](O)(Cn4cncn4)c4ccc(F)cc4F)n3)cc2)ns1` [Example 18, (2R,3R)-2-(2,4-Difluorophenyl)-3-(4-{4-[5-methyl-(1,2,4-thiadiazol-3-yl)]phenyl}thiazol-2-yl)-1-(1H-1,2,4-triazol-1-yl)butan-2-ol]: 0.28 µg/mL (≈ 0.548 µM), 0.0031 µg/mL (≈ 0.00607 µM), 0.046 µg/mL (≈ 0.0901 µM) and 0.19 µg/mL (≈ 0.372 µM).
Regarding `CCc1nc(-c2ccc(-c3csc([C@H](C)[C@](O)(Cn4cncn4)c4ccc(F)cc4F)n3)cc2)ns1` [Example 19, (2R,3R)-2-(2,4-Difluorophenyl)-3-(4-{4-[5-ethyl-(1,2,4-thiadiazol-3-yl) ]phenyl}thiazol-2-yl)-1-(1H-1,2,4-triazol-1-yl)butan-2-ol], the IC80 in test [1] was found to be 0.3 µg/mL (≈ 0.572 µM); in test [2] it was 0.016 µg/mL (≈ 0.0305 µM); in test [3], 0.044 µg/mL (≈ 0.0839 µM); in test [4], 0.25 µg/mL (≈ 0.477 µM).
